Experiments:
Dengue 2 virus [1] = assay: Plaque assay of supernatants from Dengue-infected BHK-21 cells grown with ribavirin; type: cell-based; conditions: m.o.i 0.00125, supernatants harvested day 3 post-infection, varying concentrations of ribavirin
Description: (§1) Dengue virus infection and titration: Monolayers of C6/36 or BHK-21 cells were grown in 24 well plates and infected the next day with Dengue 2 virus. After adsorption for 1 hour, unbound viruses were removed by aspiration, the cells rinsed with PBS and grown in their respective maintenance media. Cells without Dengue virus infection, or inoculated with heat-inactivated virus (30 minutes at 56° C.), were used as controls. In some experiments, BHK-21 cells were infected with Dengue 2 virus and grown in the absence or presence of varying concentrations of ribavirin (1-fl-D-ribofuranosyl-1,2,4-triazole-3-carboximide; Sigma, St. Louis, Mo.) to inhibit viral transcription. Cytotoxicity of the cells due to ribavirin treatment was determined by CytoTox 96® Non-Radioactive Cytotoxicity Assay (Promega Corporation, Madison, Wis.). The titer of Dengue 2 virus was determined by plaque assay with BHK-21 cells. […] At day 6 post-infection, cells were fixed and stained with 1% crystal violet-4% formalin solution in phosphate-buffered saline (PBS), and the plaque numbers counted. […]
(§2) To correlate the levels of replicating virus and the effects of ribavirin, BHK-21 cells were initially infected with Dengue virus at an m.o.i of 0.00125, in the absence or in the presence of varying concentrations of ribavirin. […] The results further validated the utility of this method to quantify the replicative form of the virus.

Dengue 2 virus [2] = assay: RT and real-time quantitative PCR of Dengue RNA in infected BHK-21 cells treated with ribavirin; type: cell-based; conditions: m.o.i 0.00125, day 3 post-infection
Description: RT-PCR and real-time quantitative PCR of Dengue nucleic acids: Total RNA was prepared from infected cells using the TRizol® Reagent (Invitrogen Life Technologies, Carlsbad, Calif.) according to manufacturer's instructions. The RNA obtained was quantified by spectrophotometry, and their integrity analyzed by gel electrophoresis. The RT reaction was performed at 42° C. on 2-5 ug of total RNA as described (21) using 100 U of M-MLV (Promega Corporation, Madison, Wis.) with either 12.5 pmoles of random hexamers (Promega Corporation, Madison, Wis.) or DNS-1 (5′-[…]-3′ (SEQ ID NO: 5)) in a total volume of 10 ul. […] The calculated ΔG of the hairpin loop at the RT step was −2.9 kcal/mol, with a Tm (melting temperature) of 62° C. […] However, with the conditions used for PCR, the ΔG and the Tm of the hairpin loop were −0.4 kcal/mol and 64° C. respectively.
All real-time quantitative PCR was performed on the iCycler jQ™ Multi-Color Real Time PCR Detection System (Bio-Rad, Hercules, Calif.). The threshold cycles (Ct) were calculated using the Optical interface v2.3B (Bio-Rad, Hercules, Calif.). […] Unless stated otherwise, all real-time quantitative PCR was performed with 40 cycles of 30 s denaturation at 95° C., 30 s annealing at 60° C. and 30 s extension at 72° C. […]

[3] = test system: RNA viruses including Dengue; conditions: Koff et al., 1982; Sidwell, 1979; cited from earlier work
BHK-21 cells = assay: Cytotoxicity by LDH release (CytoTox 96 Non-Radioactive Cytotoxicity Assay); type: cell-based, hamster; conditions: highest concentration used, 10 ug/ml, day 3 post-infection
Description: as §1, §2

## NC(=O)c1ncn([C@@H]2O[C@H](CO)[C@@H](O)[C@H]2O)n1 [Ribavirin, 1-fl-D-ribofuranosyl-1,2,4-triazole-3-carboximide]
Dengue 2 virus [1]
  viral replication (relative PFU): inhibited viral replication in a concentration dependent manner
Dengue 2 virus [2]; RT with DNS-1, increasing concentrations of ribavirin
  replicative, negative Dengue RNA strand: concomitant decrease with increasing concentrations of ribavirin
Dengue 2 virus [2]; varying concentrations of ribavirin
  viral transcripts, random hexamer-primed RT, primers to the envelope region: corresponding decrease in viral transcripts
[3]
  replication of RNA viruses: known to inhibit the replication of many RNA viruses including Dengue
BHK-21 cells
  cell death (LDH release): did not induce detectable cell death

Reference: patent US20060252040A1, “Strand specific detection and quantification” (priority 2002, published 2006)
